In PMC8371902, “Phase 1 study of M2698, a p70S6K/AKT dual inhibitor, in patients with advanced cancer” (Journal of Hematology & Oncology, 2021):

Legend:
[1] = design: method as in PMID 27186432; conditions: preclinical studies ref 21; cited from earlier work
[2] = tested on: advanced metastatic cancer; assay: Antitumor activity: tumor response (RECIST 1.1) and progression-free survival; format: in vivo, human
Protocol: Tumor response was assessed using RECIST 1.1. As for drugs with cytostatic antitumor activity, disease control rate was defined as the sum of stable disease (SD) and objective response rates; SD was considered clinically beneficial. Progression-free survival (PFS) was measured from treatment initiation until disease progression or death and was estimated using the Kaplan–Meier method.

[3] = tested on: pS6 in tumor tissue; design: method as in PMID 27186432; conditions: preclinical ref 21; cited from earlier work
[4] = All patients, M2698 monotherapy 15 mg, N=3
[5] = All patients, M2698 monotherapy 30 mg, N=3
[6] = All patients, M2698 monotherapy 60 mg, N=6
[7] = All patients, M2698 monotherapy 75 mg, N=4
[8] = All patients, M2698 monotherapy 110 mg, N=4
[9] = All patients, M2698 monotherapy 160 mg, N=6
[10] = All patients, M2698 monotherapy 200 mg, N=3
[11] = All patients, M2698 monotherapy 240 mg, N=17
[12] = All patients, M2698 monotherapy 320 mg, N=12
[13] = All patients, M2698 monotherapy 380 mg, N=4
[14] = All patients, M2698 monotherapy, Total of all dose levels, N=62
[15] = PAM+ patients with confounding markers, M2698 monotherapy 15 mg, N=1
[16] = PAM+ patients with confounding markers, M2698 monotherapy 60 mg, N=2
[17] = PAM+ patients with confounding markers, M2698 monotherapy 75 mg, N=1
[18] = PAM+ patients with confounding markers, M2698 monotherapy 110 mg, N=1
[19] = PAM+ patients with confounding markers, M2698 monotherapy 160 mg, N=2
[20] = PAM+ patients with confounding markers, M2698 monotherapy, Total of all dose levels, N=7
[21] = PAM+ patients without confounding markers, M2698 monotherapy 15 mg, N=2
[22] = PAM+ patients without confounding markers, M2698 monotherapy 30 mg, N=2
[23] = PAM+ patients without confounding markers, M2698 monotherapy 60 mg, N=2
[24] = PAM+ patients without confounding markers, M2698 monotherapy 75 mg, N=1
[25] = PAM+ patients without confounding markers, M2698 monotherapy 110 mg, N=2
[26] = PAM+ patients without confounding markers, M2698 monotherapy 160 mg, N=4
[27] = PAM+ patients without confounding markers, M2698 monotherapy 200 mg, N=3
[28] = PAM+ patients without confounding markers, M2698 monotherapy 240 mg, N=16
[29] = PAM+ patients without confounding markers, M2698 monotherapy 320 mg, N=11
[30] = PAM+ patients without confounding markers, M2698 monotherapy 380 mg, N=4
[31] = PAM+ patients without confounding markers, M2698 monotherapy, Total of all dose levels, N=47
[32] = PAM+ patients, M2698 monotherapy 15 mg, N=3
[33] = PAM+ patients, M2698 monotherapy 30 mg, N=2
[34] = PAM+ patients, M2698 monotherapy 60 mg, N=4
[35] = PAM+ patients, M2698 monotherapy 75 mg, N=2
[36] = PAM+ patients, M2698 monotherapy 110 mg, N=3
[37] = PAM+ patients, M2698 monotherapy 160 mg, N=6
[38] = PAM+ patients, M2698 monotherapy 200 mg, N=3
[39] = PAM+ patients, M2698 monotherapy 240 mg, N=16
[40] = PAM+ patients, M2698 monotherapy 320 mg, N=11
[41] = PAM+ patients, M2698 monotherapy 380 mg, N=4
[42] = PAM+ patients, M2698 monotherapy, Total of all dose levels, N=54
[43] = monotherapy, PAM+ with confounding alterations, 1/7

NC(=O)c1cccc2c(N[C@H](CN3CCC3)c3ccc(Cl)c(C(F)(F)F)c3)ncnc12 [M2698]
Blood–brain barrier crossing [1]: capacity to cross the blood–brain barrier
Patients with stable disease ([2]; 54 PAM+ patients, monotherapy): 40.7%
Median PFS [2, 4]: 4.1 months
Response, NE [2, 4]: 0 (0.0) n (%)
Response, PD [2, 4]: 1 (33.3) n (%)
Response, SD at wk 6 [2, 4]: 2 (66.7) n (%)
Median PFS [2, 5]: 4.1 months
Response, NE [2, 5]: 0 (0.0) n (%)
Response, PD [2, 5]: 0 (0.0) n (%)
Response, SD at wk 6 [2, 5]: 3 (100) n (%)
Median PFS [2, 6]: 1.4 months
Response, NE [2, 6]: 1 (16.7) n (%)
Response, PD [2, 6]: 4 (66.7) n (%)
Response, SD at wk 6 [2, 6]: 1 (16.7) n (%)
Median PFS [2, 7]: 1.4 months
Response, NE [2, 7]: 0 (0.0) n (%)
Response, PD [2, 7]: 3 (75.0) n (%)
Response, SD at wk 6 [2, 7]: 1 (25.0) n (%)
Median PFS [2, 8]: 1.3 months
Response, NE [2, 8]: 1 (25.0) n (%)
Response, PD [2, 8]: 2 (50.0) n (%)
Response, SD at wk 6 [2, 8]: 1 (25.0) n (%)
Median PFS [2, 9]: 1.6 months
Response, NE [2, 9]: 0 (0.0) n (%)
Response, PD [2, 9]: 4 (66.7) n (%)
Response, SD at wk 6 [2, 9]: 2 (33.3) n (%)
Median PFS [2, 10]: 4.1 months
Response, NE [2, 10]: 0 (0.0) n (%)
Response, PD [2, 10]: 1 (33.3) n (%)
Response, SD at wk 6 [2, 10]: 2 (66.7) n (%)
Median PFS [2, 11]: 2.0 months
Response, NE [2, 11]: 3 (17.6) n (%)
Response, PD [2, 11]: 8 (47.1) n (%)
Response, SD at wk 6 [2, 11]: 6 (35.3) n (%)
Median PFS [2, 12]: 2.8 months
Response, NE [2, 12]: 2 (16.7) n (%)
Response, PD [2, 12]: 5 (41.7) n (%)
Response, SD at wk 6 [2, 12]: 5 (41.7) n (%)
Median PFS [2, 13]: 6.2 months
Response, NE [2, 13]: 2 (50.0) n (%)
Response, PD [2, 13]: 0 (0.0) n (%)
Response, SD at wk 6 [2, 13]: 2 (50.0) n (%)
Median PFS [2, 14]: 2.3 months
Response, NE [2, 14]: 9 (14.5) n (%)
Response, PD [2, 14]: 28 (45.2) n (%)
Response, SD at wk 6 [2, 14]: 25 (40.3) n (%)
Response, NE [2, 15]: 0 (0.0) n (%)
Response, PD [2, 15]: 0 (0.0) n (%)
Median PFS [2, 16]: 1.4 months
Response, NE [2, 16]: 1 (50.0) n (%)
Response, PD [2, 16]: 1 (50.0) n (%)
Median PFS [2, 17]: 1.4 months
Response, NE [2, 17]: 0 (0.0) n (%)
Response, PD [2, 17]: 1 (100) n (%)
Median PFS [2, 18]: 1.3 months
Response, NE [2, 18]: 0 (0.0) n (%)
Response, PD [2, 18]: 1 (100) n (%)
Median PFS [2, 19]: 1.4 months
Response, NE [2, 19]: 0 (0.0) n (%)
Response, PD [2, 19]: 2(100.0) n (%)
Median PFS [2, 20]: 1.4 months
Response, NE [2, 20]: 1 (14.3) n (%)
Response, PD [2, 20]: 5 (71.4) n (%)
Median PFS [2, 21]: 4.1 months
Response, NE [2, 21]: 0 (0.0) n (%)
Response, PD [2, 21]: 1 (50.0) n (%)
Response, SD at wk 6 [2, 21]: 1 (50.0) n (%)
Median PFS [2, 22]: 10.3 months
Response, NE [2, 22]: 0 (0.0) n (%)
Response, PD [2, 22]: 0 (0.0) n (%)
Response, SD at wk 6 [2, 22]: 2 (100.0) n (%)
Median PFS [2, 23]: 1.4 months
Response, NE [2, 23]: 0 (0.0) n (%)
Response, PD [2, 23]: 2(100.0) n (%)
Response, SD at wk 6 [2, 23]: 0 (0.0) n (%)
Median PFS [2, 24]: 2.8 months
Response, NE [2, 24]: 0 (0.0) n (%)
Response, PD [2, 24]: 0 (0.0) n (%)
Response, SD at wk 6 [2, 24]: 1(100.0) n (%)
Median PFS [2, 25]: 15.1 months
Response, NE [2, 25]: 1 (50.0) n (%)
Response, PD [2, 25]: 0 (0.0) n (%)
Response, SD at wk 6 [2, 25]: 1 (50.0) n (%)
Response, NE [2, 26]: 0 (0.0) n (%)
Response, PD [2, 26]: 2 (50.0) n (%)
Response, SD at wk 6 [2, 26]: 2 (50.0) n (%)
Median PFS [2, 27]: 4.1 months
Response, NE [2, 27]: 0 (0.0) n (%)
Response, PD [2, 27]: 1 (33.3) n (%)
Response, SD at wk 6 [2, 27]: 2 (66.7) n (%)
Median PFS [2, 28]: 1.9 months
Response, NE [2, 28]: 3 (18.8) n (%)
Response, PD [2, 28]: 8 (50.0) n (%)
Response, SD at wk 6 [2, 28]: 5 (31.3) n (%)
Median PFS [2, 29]: 2.8 months
Response, NE [2, 29]: 1 (9.1) n (%)
Response, PD [2, 29]: 5 (45.5) n (%)
Response, SD at wk 6 [2, 29]: 5 (45.5) n (%)
Median PFS [2, 30]: 6.2 months
Response, NE [2, 30]: 2 (50.0) n (%)
Response, PD [2, 30]: 0 (0.0) n (%)
Response, SD at wk 6 [2, 30]: 2 (50.0) n (%)
Median PFS [2, 31]: 2.8 months
Response, NE [2, 31]: 7 (14.9) n (%)
Response, PD [2, 31]: 19 (40.4) n (%)
Response, SD at wk 6 [2, 31]: 21 (44.7) n (%)
Clinical benefit rate ([2]; PAM+ patients, monotherapy): 40.7%
Median PFS [2, 32]: 4.1 months
Response, NE [2, 32]: 0 (0.0) n (%)
Response, PD [2, 32]: 1 (33.3) n (%)
Response, SD at wk 6 [2, 32]: 2 (66.7) n (%)
Median PFS [2, 33]: 10.3 months
Response, NE [2, 33]: 0 (0.0) n (%)
Response, PD [2, 33]: 0 (0.0) n (%)
Response, SD at wk 6 [2, 33]: 2 (100) n (%)
Median PFS [2, 34]: 1.4 months
Response, NE [2, 34]: 1 (25.0) n (%)
Response, PD [2, 34]: 3 (75.0) n (%)
Response, SD at wk 6 [2, 34]: 0 (0.0) n (%)
Median PFS [2, 35]: 2.1 months
Response, NE [2, 35]: 0 (0.0) n (%)
Response, PD [2, 35]: 1 (50.0) n (%)
Response, SD at wk 6 [2, 35]: 1 (50.0) n (%)
Median PFS [2, 36]: 8.2 months
Response, NE [2, 36]: 1 (33.3) 1 (33.3) 1 (33.3) n (%)
Response, PD [2, 36]: 1 (33.3) 1 (33.3) 1 (33.3) n (%)
Response, SD at wk 6 [2, 36]: 1 (33.3) 1 (33.3) 1 (33.3) n (%)
Median PFS [2, 37]: 1.6 months
Response, NE [2, 37]: 0 (0.0) n (%)
Response, PD [2, 37]: 4 (66.7) n (%)
Response, SD at wk 6 [2, 37]: 2 (33.3) n (%)
Median PFS [2, 38]: 4.1 months
Response, NE [2, 38]: 0 (0.0) n (%)
Response, PD [2, 38]: 1 (33.3) n (%)
Response, SD at wk 6 [2, 38]: 2 (66.7) n (%)
Median PFS [2, 39]: 1.9 months
Response, NE [2, 39]: 3 (18.8) n (%)
Response, PD [2, 39]: 8 (50.0) n (%)
Response, SD at wk 6 [2, 39]: 5 (31.3) n (%)
Median PFS [2, 40]: 2.8 months
Response, NE [2, 40]: 1 (9.1) n (%)
Response, PD [2, 40]: 5 (45.5) n (%)
Response, SD at wk 6 [2, 40]: 5 (45.5) n (%)
Median PFS [2, 41]: 6.2 months
Response, NE [2, 41]: 2 (50.0) n (%)
Response, PD [2, 41]: 0 (0.0) n (%)
Response, SD at wk 6 [2, 41]: 2 (50.0) n (%)
Median PFS [2, 42]: 2.4 months
Response, NE [2, 42]: 8 (14.8) n (%)
Response, PD [2, 42]: 24 (44.4) n (%)
Response, SD at wk 6 [2, 42]: 22 (40.7) n (%)
Overall clinical benefit rate at 12 weeks ([2]; in vivo): 27.4%
Patients with stable disease at 12 weeks ([2]; monotherapy cohort): 27.4%
Patients with stable disease ([2]; monotherapy cohort overall): 40.3%
Objective response ([2]; monotherapy cohort, RECIST 1.1): no objective responses were noted
Median PFS ([2]; monotherapy overall): 2.3 months
Median PFS ([2]; monotherapy, PAM+ patients): 2.4 months
Stable disease at 6 weeks [2, 43]: 14.3%
Stable disease at 12 weeks [2, 43]: 14.3%
Stable disease at 12 weeks ([2]; monotherapy, PAM+ without confounding alterations, 14/47): 29.8%
Stable disease at 6 weeks ([2]; monotherapy, PAM+ without confounding alterations, 21/47): 44.7%
PFS of the five patients with PFS ≥ 6 months ([2]; monotherapy, all PAM+ without confounding alterations): 7.1–16.4 months
Median PFS, PAM+ patients with confounding alterations (KRAS, EGFR, AKT2) ([2]; monotherapy, n = 7): 1.4 months
Median PFS, PAM+ patients without confounding alterations ([2]; monotherapy, n = 47): 2.8 months
Inhibition of pS6 in tumor tissue [3]: dose-dependently inhibits pS6 in tumor tissue
